According to patent US5047397A, “Linear analogs of atrial natriuretic peptides” (California Biotechnology Inc., priority 1988, dated 1991):
Entries after “also recorded” stand apart in the source; their conditions may differ. Where a SMILES comes first, the peptide text is derived from it. Bridges are numbered along the chain shown (N, C = ends). Where no end group is shown, it is not given here.

Assays:
[1] = target: T1, specific ANP receptor sites on BASM or BAE cells (Bos taurus, UniProt P10730); experiment: Competitive displacement receptor binding of (125I)-rANP(126-150) on cultured cells; set-up: species or system bovine
T1 construct: specific receptor sites on BASM or BAE cells; endogenous in cells; host or cells: cultured BASM and BAE cells
T1 sequence (P10730 42-537): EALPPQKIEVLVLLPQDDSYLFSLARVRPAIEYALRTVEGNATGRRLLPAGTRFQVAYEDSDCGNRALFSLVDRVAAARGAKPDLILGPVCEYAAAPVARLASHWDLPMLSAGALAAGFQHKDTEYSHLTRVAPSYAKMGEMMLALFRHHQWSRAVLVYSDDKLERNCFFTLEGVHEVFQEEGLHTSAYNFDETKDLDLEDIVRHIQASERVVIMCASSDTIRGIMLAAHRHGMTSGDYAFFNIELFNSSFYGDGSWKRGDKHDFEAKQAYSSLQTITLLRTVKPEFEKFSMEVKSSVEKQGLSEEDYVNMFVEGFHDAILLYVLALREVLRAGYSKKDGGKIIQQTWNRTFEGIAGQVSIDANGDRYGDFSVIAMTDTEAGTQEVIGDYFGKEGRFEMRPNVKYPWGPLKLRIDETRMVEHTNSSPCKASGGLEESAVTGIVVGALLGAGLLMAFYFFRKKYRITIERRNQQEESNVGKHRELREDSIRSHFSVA
From the text: Analogous "competitive displacement" receptor binding assays are considered commonplace in the art for examining specific ligand-receptor interactions.
Assuming these ANP analogs act at one or more ANP receptor sites, then increased receptor affinity should reflect increased biological potency.

anesthetized rats [2] = experiment: Diuresis in anesthetized rats; format: in vivo, rat; settings: infused at 5 mcg/min via femoral vein; versus baseline; FIG. 3
Experimental: In one set of examples, cannulae were placed in the left and right ureters and femoral vein of anesthetized rats and urine was collected from the ureters. Analog peptides were administered via the femoral vein. Prior to infusing the analog peptides, saline was infused for 30 minutes, urine was collected for 6 five-minute baseline periods and urine volume was determined gravimetrically. Following these baseline collection periods, various analog peptides were infused for 30 or 60 minutes and urine volume was measured in five-minute periods during infusion and for 60 minutes following infusion (at which time rats were returned to saline). Data was examined by averaging urine flow rates for six five-minute baseline control periods immediately preceding infusion, and comparing values during and after administration of peptides with the "baseline" control values. Responses to peptides are thus evaluated and plotted as the percent of baseline control responses. Specific examples are shown in FIGS. 3A-H. The error bars at the beginning of the graphs represent baseline values +standard deviations. Responses to peptides that are substantially above baseline ±SD can thus be interpreted as being statistically significant increases.

anesthetized rats [3] = experiment: Blood pressure responses in anesthetized rats; format: in vivo, rat; settings: infusion 733 p mol/kg/min
[4] = test system: pentobarbital-anesthetized dogs; experiment: Diuresis and natriuresis in anesthetized dogs; format: in vivo, dog
Experimental: In these examples, cannulae were placed in the left and right ureters and femoral vein of anesthetized dogs and urine was collected from the ureters. Analog peptides were administered via the femoral vein. Prior to infusing analog peptides, saline was infused for 30 minutes and urine was then collected for three ten-minute collection periods. Urine volume was determined gravimetrically and urine sodium was determined photometrically.
Following these three baseline collection periods, the selected analog peptides were infused for 60 minutes and urinary flow was measured for an additional 60 minutes following infusion. During infusion (60 minutes) and recovery (60 minutes), ten-minute collection periods were obtained. Control animals which received only saline were studied in parallel.
Data were examined by comparing urine flow rates for dogs infused with peptides AP101 (3 mcg/kg/min), AP306 (3 mcg/kg/min), AP324 (3 mcg/kg/min),or AP314 (1 mcg/kg/min) against control animals infused with saline.

Compound | Ki ([1]; Table 2A, unit not given, in nM) | urine flow rate (urine volume), diuretic response (anesthetized rats [2]) | Blood Pressure (anesthetized rats [3]) | Ki(app) ([1]; concentration of unlabeled peptide displacing 50% of maximal binding of 0.5 nM (125I)-rANP(126-150), BASM or BAE cells) | prevention of (125I)-rANP(126-150) binding to BASM cell-associated receptors (FIG. 2) ([1]; increasing concentrations of unlabeled peptide, BASM cells) | Peak Urine Flow Rate V ([4]; 3 mcg/kg/min infused 60 min, *P<0.05, control 0.61) | urine flow rate and urinary sodium excretion (diuresis, natriuresis), in words ([4]; 3 mcg/kg/minute infusion)
CC[C@H](C)[C@@H]1NC(=O)[C@H](CCCNC(=N)N)NC(=O)[C@H](CC(=O)O)NC(=O)[C@H]([C@@H](C)CC)NC(=O)[C@H](CCCNC(=N)N)NC(=O)CNC(=O)CNC(=O)[C@H](Cc2ccccc2)NC(=O)[C@@H](NC(=O)[C@H](CO)NC(=O)[C@H](CO)NC(=O)[C@@H](N)CCCNC(=N)N)CSSC[C@@H](C(=O)N[C@@H](CC(N)=O)C(=O)N[C@@H](CO)C(=O)N[C@@H](Cc2ccccc2)C(=O)N[C@@H](CCCNC(=N)N)C(=O)N[C@@H](Cc2ccc(O)cc2)C(=O)O)NC(=O)[C@H](C)NC(=O)CNC1=O [AP20, R--S--S--C--F--G--G--R--I--D--R--I--G--A--C--N--S--F--R--Y] (H-RSSCFGGRIDRIGACNSFRY-OH; disulfide 4-15) | 7.50 | significantly increased | -34 ± 3 | – | – | – | –
AFGGRIDRIGA-NH2 [AP101, A--F--G--G--R--I--D--R--I--G--A--NH2] | – | induce diuresis; also recorded: significantly increased | – | 2.63 nM | effectively prevent | 1.77 mL/min | cause diuresis; also recorded: significantly increased
